According to article PMC9471048, “The signaling and selectivity of α‐adrenoceptor agonists for the human α2A, α2B and α2C‐adrenoceptors and comparison with human α1 and β‐adrenoceptors” (Pharmacology Research & Perspectives, 2022):
Where two headings read alike, the source gives them in different places.

Experiments:
[1] = biological target: T1, human α2C‐adrenoceptor (Homo sapiens, UniProt P18825); settings: for % inhibition, CRE‐SPAP (with forskolin): % inhibition from the 3 μM forskolin control, mean ± SEM; for Log EC50 (Gs), CRE‐SPAP (without forskolin): CRE‐SPAP production in the absence of forskolin
T1 sequence (P18825 1-462): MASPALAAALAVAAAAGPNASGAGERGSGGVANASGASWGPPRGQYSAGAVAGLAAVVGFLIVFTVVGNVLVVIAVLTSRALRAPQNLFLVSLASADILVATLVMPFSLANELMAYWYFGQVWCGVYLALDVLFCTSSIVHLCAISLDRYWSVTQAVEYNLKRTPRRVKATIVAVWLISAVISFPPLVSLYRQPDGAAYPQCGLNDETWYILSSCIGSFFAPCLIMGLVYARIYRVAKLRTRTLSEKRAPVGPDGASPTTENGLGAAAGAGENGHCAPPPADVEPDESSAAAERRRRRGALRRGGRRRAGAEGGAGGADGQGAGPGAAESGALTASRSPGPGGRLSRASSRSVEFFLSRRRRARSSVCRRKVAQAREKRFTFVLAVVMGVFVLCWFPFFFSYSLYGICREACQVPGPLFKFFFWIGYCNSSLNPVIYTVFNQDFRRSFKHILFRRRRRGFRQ

[2] = biological target: T1, human α2C‐adrenoceptor; test: 3H‐rauwolscine whole cell binding in CHO‐α2C cells; parameters: expressed in transfected cells; host or cells: CHO-K1 with CRE-SPAP reporter; settings: 3H‐rauwolscine whole cell binding
[3] = biological target: T2, α1A‐adrenoceptor (Homo sapiens, UniProt P35348)
T2 sequence (P35348 1-466): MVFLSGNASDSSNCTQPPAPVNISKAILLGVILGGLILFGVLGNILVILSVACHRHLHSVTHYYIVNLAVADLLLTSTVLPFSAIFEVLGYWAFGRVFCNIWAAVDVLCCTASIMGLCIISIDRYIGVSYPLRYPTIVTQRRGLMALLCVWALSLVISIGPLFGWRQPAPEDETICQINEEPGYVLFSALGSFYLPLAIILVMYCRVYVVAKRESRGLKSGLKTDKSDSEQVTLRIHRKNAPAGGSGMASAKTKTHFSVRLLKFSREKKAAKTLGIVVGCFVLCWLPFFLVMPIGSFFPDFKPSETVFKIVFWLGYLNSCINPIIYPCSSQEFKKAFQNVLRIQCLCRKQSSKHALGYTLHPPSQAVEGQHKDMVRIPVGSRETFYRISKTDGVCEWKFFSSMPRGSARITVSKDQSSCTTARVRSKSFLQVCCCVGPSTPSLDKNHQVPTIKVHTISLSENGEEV

[4] = biological target: T1, human α2C‐adrenoceptor; test: ERK1/2‐phosphorylation in CHO‐α2C cells; assay type: cell-based; parameters: expressed in transfected cells; host or cells: CHO-K1 with CRE-SPAP reporter; settings: CHO‐α2C cells; for % 10 μM PDBu, ERK1/2‐phosphorylation: maximum response compared to 10 μM PDBu, mean ± SEM
[5] = test system: parent CHO cells (no transfected receptor); test: ERK1/2‐phosphorylation in parent CHO cells; assay type: cell-based, Chinese hamster; settings: Cricetulus griseus, read-out: log EC50, ERK1/2‐phosphorylation in parent CHO cells (converted)
[6] = biological target: T3, α1D‐adrenoceptor (Homo sapiens, UniProt P25100); settings: CHO-α1D cells
T3 sequence (P25100 1-572): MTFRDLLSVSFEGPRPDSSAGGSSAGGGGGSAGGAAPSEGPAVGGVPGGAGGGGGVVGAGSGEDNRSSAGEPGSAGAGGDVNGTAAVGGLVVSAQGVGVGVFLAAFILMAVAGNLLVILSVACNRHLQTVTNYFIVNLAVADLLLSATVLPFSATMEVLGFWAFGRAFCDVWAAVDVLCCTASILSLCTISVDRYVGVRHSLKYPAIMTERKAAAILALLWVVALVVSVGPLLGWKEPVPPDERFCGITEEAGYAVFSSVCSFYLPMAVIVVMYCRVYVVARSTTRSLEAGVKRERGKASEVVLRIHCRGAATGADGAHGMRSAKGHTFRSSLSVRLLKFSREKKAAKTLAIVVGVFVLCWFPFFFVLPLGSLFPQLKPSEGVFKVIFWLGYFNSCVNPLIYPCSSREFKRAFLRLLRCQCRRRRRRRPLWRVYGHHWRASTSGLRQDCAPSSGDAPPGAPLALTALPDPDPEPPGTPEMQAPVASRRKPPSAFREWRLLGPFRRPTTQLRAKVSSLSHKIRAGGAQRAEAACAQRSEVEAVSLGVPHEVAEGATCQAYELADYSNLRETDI

[7] = biological target: T4, human α2A‐adrenoceptor (Homo sapiens, UniProt P08913); test: ERK1/2‐phosphorylation in CHO‐α2A cells; assay type: cell-based; parameters: expressed in transfected cells; host or cells: CHO-K1 with CRE-SPAP reporter; settings: CHO‐α2A, maximum response compared to 10 μM PDBu
T4 sequence (P08913 1-465): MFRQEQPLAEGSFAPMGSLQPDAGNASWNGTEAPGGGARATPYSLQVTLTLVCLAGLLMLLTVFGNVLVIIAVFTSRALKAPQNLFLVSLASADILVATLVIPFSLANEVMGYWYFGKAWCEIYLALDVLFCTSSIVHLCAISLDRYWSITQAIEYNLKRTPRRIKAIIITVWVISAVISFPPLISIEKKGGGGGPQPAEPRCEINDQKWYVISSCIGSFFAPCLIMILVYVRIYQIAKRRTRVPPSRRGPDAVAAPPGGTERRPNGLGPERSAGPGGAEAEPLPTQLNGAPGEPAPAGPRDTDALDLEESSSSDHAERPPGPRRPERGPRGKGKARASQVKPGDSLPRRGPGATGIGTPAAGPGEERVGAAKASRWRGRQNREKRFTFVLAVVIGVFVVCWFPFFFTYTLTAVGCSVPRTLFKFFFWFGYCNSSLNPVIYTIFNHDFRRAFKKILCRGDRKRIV

[8] = biological target: T4, human α2A‐adrenoceptor

IC50 ([1]; Log IC50 (Gi), CRE‐SPAP (with forskolin), CHO‐α2C cells, inhibition of 3 μM forskolin‐stimulated CRE‐SPAP production, given as negative log IC50, mean ± SEM) [nM]	Kd ([2]; living cells, negative log KD, mean ± SEM, read-out: Log KD, CHO‐α2C (converted)) [nM]	Kd ([2]; CHO‐α2C cells, given as negative log KD, mean only (SEM in Table 4), read-out: Log KD (converted)) [nM]	% 10 μM PDBu, ERK1/2‐phosphorylation [7] [%]	% 3 μM forskolin, CRE‐SPAP (without forskolin) [8] [%]	Structure (SMILES)	Log efficacy ratio (KD/IC50) [1]	% inhibition, CRE‐SPAP (with forskolin) ([1]; CHO‐α2C cells) [%]	Log EC50 (Gs), CRE‐SPAP (without forskolin) ([1]; CHO‐α2C cells)	Log IC50 (Gi), CRE‐SPAP (with forskolin) ([1]; CHO‐α2C cells, inhibition of 3 μM forskolin‐stimulated CRE‐SPAP production, given as negative log IC50, mean ± SEM)	IC50 ([2]; no KD obtained, read-out: IC50 in binding, CHO‐α2C) [nM]	IC50 (log) in binding, no KD obtained ([2]; CHO‐α2C cells, printed as log value in the Log KD column)	higher α1A‐affinity than for any other α‐adrenoceptor [3] [fold]	% 10 μM PDBu, ERK1/2‐phosphorylation [4] [%]	Log EC50, ERK1/2‐phosphorylation ([4]; given as negative log EC50, mean ± SEM)	EC50 [5] [nM]	specific binding inhibited (early plateau) [6] [%]
–	–	–	–	–	CS(=O)(=O)Nc1c(O)ccc2c1CCCC2C1=NCCN1 (stereo not shown) [A61603]	>2.68	80.5 ± 3.0	No response	−6.68 ± 0.09	> 100000	IC50 > −4	1000	149.2 ± 30.3	−7.26 ± 0.15	–	–
–	–	–	–	–	CC(C)C[C@H]1C(=O)N2CCC[C@H]2[C@]2(O)O[C@](NC(=O)[C@@H]3C=C4c5cccc6[nH]c(Br)c(c56)C[C@H]4N(C)C3)(C(C)C)C(=O)N12 [Bromocriptine]	–	–	–	–	–	–	–	–	–	117	71.2 ± 3.4
302	1480	1480	135.7 ± 17.3	15.8 ± 4.7	Clc1ccc2nsnc2c1NC1=NCCN1 [Tizanidine]	–	72.1 ± 4.4	No response	–	–	–	–	133.6 ± 17.9	–	–	–
